Assay results published in EPA's ToxValDB 9.5 (doi:10.2903/j.efsa.2007.108r).
Values after ≈ are worked out from the molar mass of the structure shown. Values joined by “and” are separate entries in the source; they are usually repeats but may differ in a detail not shown here. Equal entries are not always repeated.

What was measured:
Anas platyrhynchos = details: short-term; oral; feed; mortality
Tagia sp. = details: acute; duration: 14 days; mortality
Apis mellifera = details: acute; duration: 48 hours; oral; unspecified; mortality
Daphnia magna = details: chronic/long-term; duration: 21 days; reproduction

Nc1cnn(-c2ccccc2)c(=O)c1Cl [Chloridazon]
LD50 (Colinus virginianus; acute, oral, mortality): ≥ 2000 mg/kg
NOAEL (Colinus virginianus; reproduction developmental, F): 21.8 mg/kg-day
LC50 (Anas platyrhynchos): 1110 mg/kg
LD50 (Rattus norvegicus; acute, oral, F, mortality): 2140 mg/kg and 825 mg/kg
NOAEL (Rattus norvegicus; chronic, duration: 2 years, body weight): 13 mg/kg-day
NOAEL (Rattus norvegicus; reproduction developmental, body weight): 37 mg/kg-day
NOAEL (Rattus norvegicus; reproduction developmental, reproduction): 37 mg/kg-day
NOAEL (Rattus norvegicus; subchronic, duration: 90 days, oral, body weight): 21 mg/kg-day
LC50 (Oncorhynchus mykiss; acute, duration: 96 hours, mortality): 41.3 µg/mL (≈ 186 µM)
NOEC (Oncorhynchus mykiss; chronic/long-term, duration: 28 days, growth): 3.16 mg/L
LC50 (Tagia sp.): > 1000 mg/kg
LD50 (Apis mellifera): > 200 µg/piece
NOEC (Daphnia magna): 10 mg/L
